Values after ≈ are worked out from the molar mass of the structure shown. Like-named read-outs stand apart in the source and are kept apart here. Where no end group is shown, it is not given here.
Columns and labels:
[1] = tested on: Stahylococcus aureus ATCC-29213; format: cell-based, Staphylococcus aureus
Method: (§1) The buCATHL4 peptides were synthesized by G L Biochem (Shanghai, China). Purity and molecular mass of the peptides were provided by the vendors using HPLC and mass spectrometry, respectively. The purity of all peptides were >98%. Minimum inhibitory concentrations (MIC) of buCATHL4s against the pathogenic microorganisms were tested by broth micro-dilution technique. Briefly, bacteria were grown in Mueller Hinton broth (Sigma-Aldrich, MO, USA) at 37°C. The OD of early-log phase cultures were adjusted to 0.08–0.1 and further diluted (1:200) to keep inoculums concentration nearly 10^6 colony forming units (CFU)/ml. Diluted peptides (10 μl) were mixed with equi-volume solution A (0.02% acetic acid containing 0.4% BSA) and were serially diluted in the solution B (0.01% acetic acid containing 0.2% BSA). Bacterial inoculums (90 μl) were mixed with serially diluted peptides and incubated at 37°C for 24 h without shaking. […] All peptides were tested in triplicate. For time kill kinetics experiments, peptides (1×, 2× and 4× MIC) were added to bacterial suspension of Staphylococcus aureus, Salmonella enterica and Pseudomonas aeruginosa, as described in the MIC determination method. Aliquots of representative wells were diluted and plated on Muller Hinton agar plates at 0, 1, 4, 12 and 24 h intervals. Water with 0.01% acetic acid and ampicillin (100 mg/ml) were taken as […] controls, respectively. The results were represented as log CFU/ml.

[2] = tested on: Stahylococcus aureus NCDC-0111; format: cell-based, Staphylococcus aureus
Method: as §1

[3] = tested on: Acinetobacter johnsonii NCDC-0072; format: cell-based
Method: as §1

[4] = tested on: Bacillus cereus NCDC-0240; format: cell-based
Method: as §1

[5] = tested on: Escherichia coli MTCC-0723; format: cell-based
Method: as §1

[6] = tested on: Listeria monocytogenes ATCC-19111; format: cell-based
Method: as §1

[7] = tested on: Pseudomonas aeruginosa ATCC-27853; format: cell-based
Method: as §1

[8] = tested on: Pseudomonas aeruginosa NCDC-0105; format: cell-based
Method: as §1

[9] = tested on: Salmonella typhimurium ATCC-14028; format: cell-based
Method: as §1

S. aureus [10] = experiment: Time kill kinetics; format: cell-based, Staphylococcus aureus; conditions: for Growth inhibition of S. aureus in time kill kinetics: peptide at 2× MIC, plating at 0, 1, 4, 12, 24 h; for Time to complete elimination of S. aureus: peptide at 4× MIC, time kill kinetics
Method: as §1

[11] = tested on: S. aureus, S. typhimurium and P. aeruginosa; experiment: Time kill kinetics, three pathogens; format: cell-based; conditions: peptide at 4× MIC
Method: as §1

S. aureus biofilm = experiment: Biofilm assay (crystal violet); format: cell-based, Staphylococcus aureus; conditions: peptide at 1× and 2× MIC, 24 h 37°C, crystal violet A570
Method: (§2) The efficacy of peptides against biofilms of S. aureus and P. aeruginosa was determined using previously described method. Overnight grown bacterial cultures were diluted (1:100) and 200 μl suspensions were mixed with each peptide (1× and 2× MIC) in a 96 well plate and incubated for 24 h at 37°C. Biofilms were fixed with paraformadehyde solution, cultures were decanted and 0.1% crystal violet solution was added to stain the film. The plate was rinsed thrice with water and air-dried. The stain was dissolved by 100 μl of acetic acid (30%) and absorbance was measured at 570 nm. The experiment was performed in triplicate, 30% acetic acid was taken as a blank.

P. aeruginosa biofilm = experiment: Biofilm assay (crystal violet); format: cell-based, Pseudomonas aeruginosa; conditions: 24 h 37°C, crystal violet A570
Method: as §2

S. typhimurium [12] = experiment: LIVE/DEAD BacLight membrane permeability assay; format: cell-based, Salmonella typhimurium; conditions: peptide 200μM, SYTO9/PI; for Membrane permeability of latent (stationary phase) S. typhimurium: stationary phase culture, proportion of cells affected comparatively less; for Clumping (agglutination) of S. typhimurium after peptide addition: log phase culture
Method: (§3) The damage to bacterial membrane following addition of peptide was assessed by BacLight kit (Life Technologies, CA, USA). Aliquots of S. aureus, S. enterica and P. aeruginosa cultures from exponential (shaking incubation for 2, 3, and 4 h, respectively) and stationary phases (overnight incubation) were harvested by centrifugation (5000 g for 10 min) and diluted in PBS. Peptides (200μM) were added to bacterial suspension and 50 μl aliquots were removed immediately or after 1 h incubation. Equi-volume mixtures of SYTO9/PI (3 μl/ml bacterial suspension) were added to these aliquots and fluorescent micrographs of stained bacteria were taken at 1000×magnification in a microscope (Olympus BX51 fitted with DP71 camera) with a fluorescence illuminator system.

S. typhimurium [13] = experiment: Scanning and transmission electron microscopy; format: cell-based, Salmonella typhimurium; conditions: for Morphological change of S. typhimurium cells (SEM/TEM): increasing concentrations (>2× MIC)
Method: (§4) Early log phase cultures of S. aureus and S. enterica were subjected to different concentration of peptides and incubated at 37°C. The bacterial pellets after centrifugation (5000 g for 10 min) were washed with 0.1M cacodylate buffer (pH 7.2) and were fixed in 2.5% gluteraldehyde at 4°C for 2 h. For scanning electron microscopy, bacteria were dehydrated using gradient series of ethanol wash (30, 50, 70, 90 and absolute). The samples were air-dried overnight, gold coated (Eiko IB-3 ion coater), and viewed in a Zeiss EVO 18 Special Edition SEM. For transmission electron microscopy, fixed samples were adhered to hexagonal PELCO® Grids (Ted Pella, Inc. USA), washed once with Mili-Q water and stained with uranyl acetate (2%) buffer. Samples were viewed in a JEM 1011 (Jeol, Japan) microscope.

[14] = tested on: bacterial biofilm (S. aureus and P. aeruginosa); experiment: Biofilm assay, overall statement; format: cell-based; conditions: summary in discussion
Method: as §2

S. aureus [15] = experiment: LIVE/DEAD BacLight membrane permeability assay; format: cell-based, Staphylococcus aureus; conditions: peptide 200μM, log phase culture, SYTO9/PI
Method: as §3

S. aureus [16] = experiment: Scanning and transmission electron microscopy; format: cell-based, Staphylococcus aureus
Method: as §4

[17] = increasing concentrations (>2× MIC)

Row | Compound | MIC ([1]; ATCC-29213, 24 h) [µM] | MIC ([2]; 24 h) [µM] | MIC ([3]; 24 h) [µM] | MIC ([4]; NCDC-0240, 24 h) [µM] | MIC ([5]; MTCC-0723, 24 h) [µM] | MIC ([6]; ATCC-19111, 24 h) [µM] | MIC ([7]; ATCC-27853, 24 h) [µM] | MIC ([8]; NCDC-0105, 24 h) [µM] | MIC ([9]; ATCC-14028, 24 h) [µM] | Growth inhibition of S. aureus in time kill kinetics (S. aureus [10]) | Killing rate compared with indolicidin and ampicillin [11] | Reduction in biofilm growth of S. aureus (S. aureus biofilm) | Reduction in biofilm growth of P. aeruginosa (P. aeruginosa biofilm; peptide at 1× and 2× MIC) | Membrane permeability of latent (stationary phase) S. typhimurium (S. typhimurium [12]) | Time to complete elimination of S. aureus (S. aureus [10]) [h] | Effect against growth of bacterial biofilms (overall) [14] | Clumping (agglutination) of S. aureus after peptide addition (S. aureus [15]) | Clumping (agglutination) of S. typhimurium after peptide addition (S. typhimurium [12]) | Morphological change of S. aureus cells (SEM/TEM) (S. aureus [16]; [17]) | Morphological change of S. aureus cells (SEM/TEM) (S. aureus [16]; lower concentrations (≤2× MIC)) | further results
1 | RIRFPWPWRWPWWPRFRG [buCATHL4D] | 6 | 12.5 | 50 | 1.5 | 6 | 6 | 25 | 50 | 50 | complete growth inhibition | comparatively better killing rate | substantial | substantial | affected membrane permeability | – | – | – | – | – | – | Formation of negative curvature on membrane (SEM/TEM) (S. typhimurium [13]; more evident with S. typhimurium): Formation of negative curvature
2 | GLPWILLRWLFFRG [buCATHL4A] | 3 | 25 | 200 | 100 | 200 | 6 | >200 | >200 | 100 | – | – | – | – | – | – | – | – | – | – | – | –
3 | AIPWSIWWHLLFKG [buCATHL4G] | 0.8 | 12.5 | 25 | 50 | 50 | 1.5 | 200 | 200 | 3 | – | comparatively better killing rate | – | – | – | 4 | no marked effect | immediate clumping | immediate clumping | budding | swelling and blebing | Morphological change of S. typhimurium cells (SEM/TEM) (S. typhimurium [13]): budding
4 | CC[C@H](C)[C@H](N)C(=O)N[C@@H](CC(C)C)C(=O)N1CCC[C@H]1C(=O)N[C@@H](Cc1c[nH]c2ccccc12)C(=O)N[C@@H](CCCCN)C(=O)N[C@@H](Cc1c[nH]c2ccccc12)C(=O)N1CCC[C@H]1C(=O)N[C@@H](Cc1c[nH]c2ccccc12)C(=O)N[C@@H](Cc1c[nH]c2ccccc12)C(=O)N1CCC[C@H]1C(=O)N[C@@H](Cc1c[nH]c2ccccc12)C(=O)N[C@@H](CCCNC(=N)N)C(=O)N[C@@H](CCCNC(=N)N)C(N)=O [Indolicidin, indolicidin, reference compound] | – | – | – | – | – | – | – | – | – | – | – | effective | effective | – | – | – | – | – | – | – | MIC ([1]; Stahylococcus aureus ATCC-29213, broth microdilution, Mueller Hinton broth, ~10^6 CFU/ml, 37°C 24 h, no visible turbidity, triplicate): 3 µM (≈ 5.72 µg/mL); MIC ([2]; Stahylococcus aureus NCDC-0111, broth microdilution, Mueller Hinton broth, ~10^6 CFU/ml, 37°C 24 h, no visible turbidity, triplicate): 1.5 µM (≈ 2.86 µg/mL); MIC ([3]; Acinetobacter johnsonii NCDC-0072, broth microdilution, Mueller Hinton broth, ~10^6 CFU/ml, 37°C 24 h, no visible turbidity, triplicate): 6 µM (≈ 11.4 µg/mL); MIC ([4]; Bacillus cereus NCDC-0240, broth microdilution, Mueller Hinton broth, ~10^6 CFU/ml, 37°C 24 h, no visible turbidity, triplicate): 0.8 µM (≈ 1.53 µg/mL); MIC ([5]; Escherichia coli MTCC-0723, broth microdilution, Mueller Hinton broth, ~10^6 CFU/ml, 37°C 24 h, no visible turbidity, triplicate): 0.8 µM (≈ 1.53 µg/mL); MIC ([6]; Listeria monocytogenes ATCC-19111, broth microdilution, Mueller Hinton broth, ~10^6 CFU/ml, 37°C 24 h, no visible turbidity, triplicate): 6 µM (≈ 11.4 µg/mL); MIC ([7]; Pseudomonas aeruginosa ATCC-27853, broth microdilution, Mueller Hinton broth, ~10^6 CFU/ml, 37°C 24 h, no visible turbidity, triplicate): 25 µM (≈ 47.7 µg/mL); MIC ([8]; Pseudomonas aeruginosa NCDC-0105, broth microdilution, Mueller Hinton broth, ~10^6 CFU/ml, 37°C 24 h, no visible turbidity, triplicate): 12.5 µM (≈ 23.8 µg/mL); MIC ([9]; Salmonella typhimurium ATCC-14028, broth microdilution, Mueller Hinton broth, ~10^6 CFU/ml, 37°C 24 h, no visible turbidity, triplicate): 12.5 µM (≈ 23.8 µg/mL)
5 | AIPWSIWWRLLFKG [buCATHL4F] | 6 | 6 | 200 | 100 | >200 | 3 | 100 | 50 | 0.2 | complete growth inhibition | – | – | – | affected membrane permeability | 4 | no marked effect | immediate clumping | immediate clumping | budding | swelling and blebing | Reduction in biofilm growth of P. aeruginosa (P. aeruginosa biofilm; peptide at 2× MIC): considerably; Morphological change of S. typhimurium cells (SEM/TEM) (S. typhimurium [13]): budding

Source: article PMC4684500, “Diversity, Antimicrobial Action and Structure-Activity Relationship of Buffalo Cathelicidins” (PLoS ONE, 2015)
